Assay results published in patent US7763426B2, “Probes and methods for detection of Escheridia coli and antibiotic resistance” (priority 2004, dated 2010).
{Fluorescein} = fluorescein label (binding site for anti-fluorescein Fab-HRP); {Biotin} = biotin (capture probe anchor)

Key:
[1] = test system: E. coli 16S rRNA; assay: Amperometric detection of bacterial 16S rRNA, 65° C. hybridization (Examples 2, 3); format: binding, Escherichia coli; settings: for sensitivity of electrochemical sensor assay (cells detected): five-fold serial dilutions of E. coli cells, capture probe EC434C, 5′-fluorescein 6 nt gap vs 3′-fluorescein 0 nt gap
[2] = Double-labeled Test Probes on the electrochemical sensor (no hybridization)
Experimental: FIG. 7. The effect of oligonucleotide length on electrochemical signal intensity. Single stranded oligonucleotides (‘Test Probes’) ranging from 20-60 bps in length modified at the 5′- and 3′-ends with biotin and fluorescein, respectively, were tested to examine the effect of probe length on signal intensity. Hybridization was not required in these experiments because, as shown in the inset, the double-labeled probes served as a bridge between fluorescein and biotin on the electrochemical sensor surface. The highest signal output was obtained using the 40 bp probe, yielding a lower limit of detection at a concentration of 10 pM. Background current output was measured using negative control (NC) sensors to which no cell lysates were applied.
Sensor characterization and surface functional layer preparation. Microfabricated electrochemical sensor arrays with an alkanethiolate self-assembled monolayer (SAM) were obtained from GeneFluidics (Monterey Park, Calif.). […]
Amperometric Detection of bacterial 16S rRNA. […] Amperometric current vs. time was measured using a multichannel potentiostat (GeneFluidics). The voltage was fixed at −200 mV (vs. reference), and the electroreduction current was measured at 60 sec after the HRP redox reaction reached steady state. All samples were analyzed in duplicate. […] Positive signals are determined by comparing the signals with the background using paired T test. […]

Sequence: TCCCCGCTGAAAGTACTTTACAACCCGAAGGCCTT (DNA TCCCCGCTGAAAGTACTTTACAACCCGAAGGCCTT; sugars by position and backbone not given here; further chemistry not fully specified; listed as Escherichia coli) [EC399D]
- improvement in sensitivity ([1]; 3′-fluorescein and continuity of hybridization sites vs 5′-fluorescein with gap): 24-25 fold
- sensitivity of electrochemical sensor assay (cells detected) [1]: 260 cells

Sequence: CTGAAAGTACTTTACAACCCGAAGGCCTTCTTCAT (DNA CTGAAAGTACTTTACAACCCGAAGGCCTTCTTCAT; DNA, backbone and methylation of C not given here; listed as Escherichia coli) [EC393D]
- sensitivity of electrochemical sensor assay (cells detected) [1]: 6,200 cells

Sequence: CGTCAATGAGCAAAGGTATTACTCCCTTCCTCCCCGCTGA (DNA CGTCAATGAGCAAAGGTATTACTCCCTTCCTCCCCGCTGA; DNA, 5' {Biotin}, 3' {Fluorescein}, backbone and methylation of C not given here) [40-mer]
- lower limit of detection ([2]; 5′-biotin, 3′-fluorescein Test Probe): 10 pM
- signal relative to 20mer and 60mer Test Probes ([2]; across a range of concentrations): higher signals
